# Patent US6107517A, “Thyroid hormone analogues and methods for their preparation” (The Regents of the University of California, priority 1999, dated 2000)
# Key:
# [1] = system: β-galactosidase reporter gene construct (HeLa cells); assay: β-galactosidase reporter control expression in HeLa cells; assay type: cell-based; settings: 1nM T3 or Compound (I-1) 10^-6 M to 10^-5 M
# Excerpt: (§1) For transfections, cells are trypsinized, resuspended in buffer (PBS, 0.1% glucose), and mixed with a reporter gene construct and with or without the appropriate thyroid receptor (TR) expression vectors (CMV TR β1,CMV TR α1). One such reporter gene construct consists of a synthetic TR response element (DR-4) containing two copies of a direct repeat spaced by four nucleotides (AGGTCA-caggAGGTCA) cloned into the HindIII site of the pUC19 polylinker immediately upstream of a minimal (-32/+45) thymidine kinase promoter linked to luciferase coding sequences. Another reporter gene construct that can be used consists of the β-galactosidase coding sequence fused downstream of an actin promoter.
# Cells in 0.5 ml of buffer (8+/-2 million cells) are electroporated using a Bio-Rad gene pulser at 0.35 kvolts and 960 microfarads. […] After incubation at 37° C. for 24 hours, incubation media is discarded and the cells are detached with 1 ml of calcium/magnesium-free PBS, 1mM EDTA, prewarmed at 37° C., and transferred to 1.5 ml Eppendorf tubes. Cells are pelleted by centrifugation in a microfuge for 15 seconds at room temperature. The supernatants are aspirated and the pellets are lysed by addition of 120 μl of Tris-Cl 0.25 M pH 7.6, 0.1% Triton. […] The light output is measured for 10 sec at room temperature with a luminometer (Analytical Luminescence Laboratory, MONOLIGHT^R 1500).
# [2] = system: luciferase reporter gene (HeLa cells); assay: Luciferase activity in HeLa cells containing reporter constructs but no overexpressed hTRs; assay type: cell-based; settings: highest concentration [10^-5]
# Procedure: (§2) Cellular transactivation assays can be performed according to the procedure in Ribeiro R. C. et al. (1996) J. Biol. Chem. 271, 17147-17151. Briefly, HeLa cells are grown in 15 cm dishes in DME H-21, 4.5 g/L glucose with 10% newborn bovine serum, 2 mM glutamine, 50 units/ml penicillin, and 50 μg/ml streptomycin.
# as §1
# Cells in 0.5 ml of buffer (8+/-2 million cells) are electroporated using a Bio-Rad gene pulser at 0.35 kvolts and 960 microfarads. […] The light output is measured for 10 sec at room temperature with a luminometer (Analytical Luminescence Laboratory, MONOLIGHT^R 1500).
# hTRβ [3] = target: T1, hTRβ (Homo sapiens, UniProt P10828); assay: Cellular transcription (luciferase) assay in HeLa cells overexpressing hTRβ; assay type: cell-based; settings: for activation of transcription via hTRβ (luciferase): 24 hours at 37° C., T3 10^-12 to 10^-7 M, I-3 10^-10 to 3×10^-5 M, I-1 10^-9 to 3×10^-5 M
# T1 construct: expressed in transfected cells; host or cells: HeLa cells
# T1 sequence (P10828 1-461): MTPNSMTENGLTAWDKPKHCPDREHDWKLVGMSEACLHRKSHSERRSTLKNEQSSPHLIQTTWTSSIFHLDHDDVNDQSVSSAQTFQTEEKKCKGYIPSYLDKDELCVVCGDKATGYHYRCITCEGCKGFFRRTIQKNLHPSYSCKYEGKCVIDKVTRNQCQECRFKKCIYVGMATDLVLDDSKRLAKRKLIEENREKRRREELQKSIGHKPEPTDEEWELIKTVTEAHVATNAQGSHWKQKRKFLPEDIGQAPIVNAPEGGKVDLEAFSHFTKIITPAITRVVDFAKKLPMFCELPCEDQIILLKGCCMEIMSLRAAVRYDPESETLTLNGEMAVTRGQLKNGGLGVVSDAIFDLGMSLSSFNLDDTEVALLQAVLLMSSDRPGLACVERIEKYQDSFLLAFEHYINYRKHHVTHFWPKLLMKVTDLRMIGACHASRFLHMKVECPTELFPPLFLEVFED
# Procedure: as §2, §1
# (§3) Cells in 0.5 ml of buffer (8+/-2 million cells) are electroporated using a Bio-Rad gene pulser at 0.35 kvolts and 960 microfarads. […] After incubation at 37° C. for 24 hours, incubation media is discarded and the cells are detached with 1 ml of calcium/magnesium-free PBS, 1mM EDTA, prewarmed at 37° C., and transferred to 1.5 ml Eppendorf tubes. Cells are pelleted by centrifugation in a microfuge for 15 seconds at room temperature. The supernatants are aspirated and the pellets are lysed by addition of 120 μl of Tris-Cl 0.25 M pH 7.6, 0.1% Triton. After resuspension by vortexing for 5-10 sec, the lysates are pelleted by centrifugation in a microfuge for 5 min at room temperature. One hundred μl of each Eppendorf tube lysate is added to 300 μl of 25 mM glycylglycine pH 7.8, 15 mM MgSO4, 4 mM EGTA, 15 mM potassium phosphate pH 7.8, 1 mM DTT, 2 mM ATP, and 0.2 mM Luciferine. The light output is measured for 10 sec at room temperature with a luminometer (Analytical Luminescence Laboratory, MONOLIGHT^R 1500). […]
# hTRβ [4] = target: T1, hTRβ; assay: Receptor binding assay: competition with [125I]T3 for binding to recombinant hTRβ
# Procedure: (§4) To test the ability of synthesized human thyroid receptor (hTR) ligands to bind to two subtypes of hTR, hTRα and hTRβ, the binding affinity of a TR ligand for a TR can be assayed using TRs expressed in E. coli and [^125 I ] […] The binding affinity of a ligand for its receptor is defined by a constant termed Kd and can be calculated using a curve fitting program.
# (§5) The ability of [^125 I] […] In control experiments, either purified recombinant hTRα or hTRβ was incubated with [^125 I] […] To test the analogues, either purified recombinant hTRα or hTRβ was incubated with [^125 I]
# HeLa cells = assay: Toxicity in HeLa cells (change in cell morphology, or lifting off of cells from a growth surface); assay type: cell-based
# hTRα [5] = target: T2, hTRα (Homo sapiens, UniProt P10827); assay: Receptor binding assay: competition with [125I]T3 for binding to recombinant hTRα
# T2 construct: made in house; host or cells: E. coli
# T2 sequence (P10827 1-410 isoform P10827-2): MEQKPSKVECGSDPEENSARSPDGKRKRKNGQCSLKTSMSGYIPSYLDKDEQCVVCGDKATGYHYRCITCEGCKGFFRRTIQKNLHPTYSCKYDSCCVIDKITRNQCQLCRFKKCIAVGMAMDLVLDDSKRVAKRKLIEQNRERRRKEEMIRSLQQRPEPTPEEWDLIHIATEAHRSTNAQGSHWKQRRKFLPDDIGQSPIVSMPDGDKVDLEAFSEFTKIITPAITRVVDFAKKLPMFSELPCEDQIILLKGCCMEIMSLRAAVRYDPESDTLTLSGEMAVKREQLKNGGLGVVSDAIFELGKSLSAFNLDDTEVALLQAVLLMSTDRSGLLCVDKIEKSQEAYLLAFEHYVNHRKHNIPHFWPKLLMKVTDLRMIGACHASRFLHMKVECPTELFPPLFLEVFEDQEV
# Procedure: as §4, §5
# hTRα [6] = target: T2, hTRα; assay: Cellular transcription (luciferase) assay in HeLa cells overexpressing hTRα; assay type: cell-based; settings: for activation of transcription via hTRα (luciferase): 24 hours at 37° C., T3 10^-12 to 10^-7 M, I-3 10^-10 to 3×10^-5 M, I-1 10^-9 to 3×10^-5 M
# Procedure: as §2, §1, §3
# TRβ = settings: literature / earlier patent; cited from earlier work
SMILES,expression of β-galactosidase [1],activation of transcription via hTRβ (luciferase) (hTRβ [3]),Kd (hTRβ [4]) [nM],Kd (hTRα [5]) [nM],activation of transcription via hTRα (luciferase) (hTRα [6]),also measured
"N[C@@H](Cc1cc(I)c(Oc2ccc(O)c(I)c2)c(I)c1)C(=O)O [Compound T3, 3,5,3'-triiodo-L-thyronine, reference compound]",not affected,,,,,
CCCCN(C)C(=O)CCCCCCCCCCC(c1ccc(O)c(C(C)C)c1)c1c(C)cc(OCC(=O)O)cc1C (centres unmarked) [Compound I-1],not affected,did not appear to activate hTR-mediated transcription,~180,~77,did not appear to activate hTR-mediated transcription,"luciferase activity without cotransfected TR-expression construct [2]: occurs even when a TR-expression construct is not cotransfected into HeLa cells; competition with T3 / antagonism, hTRβ (hTRβ [3]): still able to compete with T3; concentration at which toxicity was observed (HeLa cells): 10 µM; competition with T3 / antagonism, hTRα (hTRα [6]): still able to compete with T3"
C=CCC(c1ccc(O)c(C(C)C)c1)c1c(C)cc(OCC(=O)O)cc1C (centres unmarked) [Compound I-3],,"able to stimulate transcription and translation of the luciferase gene through both subtypes of hTR, though to a lesser degree than. T3",~36,~138,"able to stimulate transcription and translation of the luciferase gene through both subtypes of hTR, though to a lesser degree than. T3",
Cc1cc(OCC(=O)O)cc(C)c1Cc1ccc(O)c(C(C)C)c1 [GC-1],,,,,,affinity and TR subtype selectivity (background) (TRβ): high affinity TRP-selective agonist ligand
CCCCN(C)C(=O)CCCCCC/C=C\CCC(c1ccc(O)c(C(C)C)c1)c1c(C)cc(OCC(=O)O)cc1C (centres unmarked) [Compound I-2],,,~721,~237,,
